Data taken from publication PMC10967730, “Identification and Functional Validation of Two Novel Antioxidant Peptides in Saffron” (Antioxidants, 2024).
Ends that are not written are not given here.

How the values were obtained:
HepG2 cells = experiment: MTT cell viability of HepG2 cells; details: for Effect on the viability of HepG2 cells: MTT, peptide 0.01–0.1 mg/mL
Protocol: The HepG2 cells were cultured in DMEM (Gibco, New York, NY, USA) containing 10% (v/v) fetal bovine serum (HyClone, Logan, UT, USA) and 1% (v/v) penicillin/streptomycin (Gibco, New York, NY, USA) at 37 °C and 5% CO2.
The cells were passaged every 2 days, with a passage ratio of 1:2 when the cells grew to more than 80% confluence. Then, the HepG2 cells were distributed in 96-well culture plates at a density of 2.5 × 10^4 cells per well. When the cells were cultured for 24 h in DMEM medium, the medium was removed and replaced with a new medium containing various concentrations of H2O2 (100 mM, 300 mM, 500 mM, 700 mM, 900 mM, and 1100 mM), and the control cells were grown in DMEM. MTT (3-(4,5-dimethylthiazol2-yl)-2,5-diphenyltetrazolium bromide; Sigma-Aldrich, St. Louis, MO, USA) was added to the wells and the cells were incubated for 2 h at 37 °C. Then, DMSO was added to the wells for dissolution of formazan granules produced by the live cells and the absorbance measurements were performed at 540 nm to ensure the half inhibitory concentration (IC50) of H2O2 [30].
The safe and harmless peptide concentrations were also determined by the above method. Different concentrations of peptides (0.01 mg/mL, 0.02 mg/mL, 0.04 mg/mL, 0.06 mg/mL, 0.08 mg/mL, and 0.1 mg/mL) also act on cells, and cell viability was detected by MTT to screen out the safe and harmless peptide concentrations.

[1] = cited from earlier work
From the text: Subsequently, the ABTS method was utilized to determine the total antioxidant activity of the stigma protein. […] We screened 289 saffron antioxidant peptides by comparing with the BIOPEP database. Among them, the saffron peptides with high abundance in the range from tetrapeptide to decapeptide were selected. […] It has been reported that hydrophobic a ...

Compound: OO [H2O2]
- Cell viability decline (HepG2 cells; HepG2, MTT, H2O2 300 mM): about 50%

Compound: N[C@@H](Cc1ccccc1)C(=O)O [Phe]
- Concentration at which ABTS scavenging activity is shown [1]: 10^−3 mol/L

Compound: DGGSDYLGK [DGGSDYLGK]
- Effect on the viability of HepG2 cells (HepG2 cells): no significant effects

Compound: VDPYFNK [VDPYFNK]
- Effect on the viability of HepG2 cells (HepG2 cells): no significant effects
